Structures are written as SMILES. Activity calls are given as the source filed them. No cut-off for these calls is given here.

Test [1] relates to PANC-1. Put plainly: Induction of apoptosis in human PANC-1 cells assessed as viable cells at 5 uM incubated for 24 hrs by annexinV-FITC and PI staining based flow cytometry analysis (reference value: 89.5 %). Type of test: functional. The settings on record: read-out: Activity. In general terms: In flow cytometry, cells or beads pass a laser one at a time.
The subject of test [2] is PANC-1. In words: Induction of apoptosis in human PANC-1 cells assessed as viable cells at 2.50 uM incubated for 24 hrs by annexinV-FITC and PI staining based flow cytometry analysis (reference value: 89.5 %). Type of test: functional. The settings on record: read-out: Activity.
In the next test the test system is BXPC-3. Put plainly: Cytotoxicity against human BXPC-3 cells assessed as inhibition of cell growth incubated for 72 hrs by SRB assay. It is filed as functional, cell-based. To be noted: BXPC-3, 72 h. (In general: In SRB staining, fixed cells bind dye roughly in proportion to their protein.)
The target in test [3] is Epidermal growth factor receptor (Homo sapiens) (UniProt P00533). Put plainly: Inhibition of EGFR downstream signalling in human ASPC1 cells assessed as reduction of Akt phosphorylation upto 5 uM incubated for 24 hrs by Western blot analysis. Type of test: cell-based.
Sequence of Epidermal growth factor receptor (Homo sapiens) (P00533 whole entry): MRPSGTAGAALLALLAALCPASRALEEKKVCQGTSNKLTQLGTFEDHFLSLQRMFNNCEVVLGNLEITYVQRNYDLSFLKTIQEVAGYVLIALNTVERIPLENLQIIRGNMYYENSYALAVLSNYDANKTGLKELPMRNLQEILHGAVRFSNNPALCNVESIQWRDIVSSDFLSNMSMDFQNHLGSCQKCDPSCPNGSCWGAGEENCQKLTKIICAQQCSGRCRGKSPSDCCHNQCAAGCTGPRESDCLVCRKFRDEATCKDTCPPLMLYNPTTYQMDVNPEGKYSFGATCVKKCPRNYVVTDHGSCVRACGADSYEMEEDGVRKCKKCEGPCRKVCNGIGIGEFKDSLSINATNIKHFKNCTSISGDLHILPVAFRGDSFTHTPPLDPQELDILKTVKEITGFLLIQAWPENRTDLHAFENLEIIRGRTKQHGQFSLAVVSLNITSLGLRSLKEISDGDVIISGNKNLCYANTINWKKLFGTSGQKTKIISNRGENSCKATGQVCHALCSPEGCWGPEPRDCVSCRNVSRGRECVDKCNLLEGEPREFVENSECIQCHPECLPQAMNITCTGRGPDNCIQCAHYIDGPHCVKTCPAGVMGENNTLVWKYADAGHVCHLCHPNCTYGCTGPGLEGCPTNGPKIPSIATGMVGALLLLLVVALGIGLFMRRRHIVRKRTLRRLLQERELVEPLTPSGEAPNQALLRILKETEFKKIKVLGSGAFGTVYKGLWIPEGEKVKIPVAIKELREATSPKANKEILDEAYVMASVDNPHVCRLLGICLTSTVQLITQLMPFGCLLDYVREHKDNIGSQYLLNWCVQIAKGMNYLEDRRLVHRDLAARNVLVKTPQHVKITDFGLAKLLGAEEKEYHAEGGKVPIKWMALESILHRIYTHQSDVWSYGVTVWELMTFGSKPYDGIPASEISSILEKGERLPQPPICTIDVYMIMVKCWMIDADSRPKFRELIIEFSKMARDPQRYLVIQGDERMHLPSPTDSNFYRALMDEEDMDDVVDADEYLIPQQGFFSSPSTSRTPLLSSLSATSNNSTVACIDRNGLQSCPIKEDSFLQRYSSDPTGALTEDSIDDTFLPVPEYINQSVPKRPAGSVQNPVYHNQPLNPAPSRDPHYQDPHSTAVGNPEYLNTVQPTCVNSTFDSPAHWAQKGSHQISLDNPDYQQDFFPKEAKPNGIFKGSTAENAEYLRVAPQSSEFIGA
Test [4] has the same target. In words: Inhibition of EGFR downstream signalling in human PANC-1 cells assessed as reduction of STAT3 phosphorylation upto 5 uM incubated for 24 hrs by Western blot analysis. Type of test: cell-based. For orientation: A western blot detects proteins with antibodies after separation by electrophoresis.
In test [5] the test system is ASPC1. Put plainly: Induction of apoptosis in human ASPC1 cells assessed as viable cells at 2.50 uM incubated for 24 hrs by annexinV-FITC and PI staining based flow cytometry analysis (reference value: 96.0 %). It is filed as functional. The settings on record: read-out: Activity.
Test [6] has as its system ASPC1. Put plainly: Induction of apoptosis in human ASPC1 cells assessed as early apoptotic cells at 1.25 uM incubated for 24 hrs by annexinV-FITC and PI staining based flow cytometry analysis (reference value: 1.56 %). Type of test: functional.
Test [7] has as its system ASPC1. Put plainly: Induction of apoptosis in human ASPC1 cells assessed as early apoptotic cells at 2.50 uM incubated for 24 hrs by annexinV-FITC and PI staining based flow cytometry analysis (reference value: 1.56 %). It is filed as functional. To be noted: dose 2.5 µM.
The test system of test [8] is ASPC1. In words: Induction of apoptosis in human ASPC1 cells assessed as early apoptotic cells at 5 uM incubated for 24 hrs by annexinV-FITC and PI staining based flow cytometry analysis (reference value: 1.56 %). It is filed as functional.
Test [9] concerns ASPC1. In words: Induction of apoptosis in human ASPC1 cells assessed as late apoptotic cells at 5 uM incubated for 24 hrs by annexinV-FITC and PI staining based flow cytometry analysis (reference value: 2.18 %). Type of test: functional.
Test [10] concerns ASPC1. Put plainly: Induction of apoptosis in human ASPC1 cells assessed as necrotic cells at 2.50 uM incubated for 24 hrs by annexinV-FITC and PI staining based flow cytometry analysis (reference value: 0.27 %). To be noted: dose 2.5 µM. It is filed as functional.
Test [11] concerns PANC-1. Put plainly: Induction of apoptosis in human PANC-1 cells assessed as early apototic cells at 2.50 uM incubated for 24 hrs by annexinV-FITC and PI staining based flow cytometry analysis (reference value: 4.66 %). Type of test: functional. To be noted: dose 2.5 µM.
Test [12] deals with PANC-1. Put plainly: Induction of apoptosis in human PANC-1 cells assessed as early apototic cells at 5 uM incubated for 24 hrs by annexinV-FITC and PI staining based flow cytometry analysis (reference value: 4.66 %). Type of test: functional.
For test [13], the system named is PANC-1. Put plainly: Induction of apoptosis in human PANC-1 cells assessed as late apototic cells at 2.50 uM incubated for 24 hrs by annexinV-FITC and PI staining based flow cytometry analysis (reference value: 5.71 %). It is filed as functional. To be noted: dose 2.5 µM.
Test [14] relates to PANC-1. Put plainly: Induction of apoptosis in human PANC-1 cells assessed as necrotic cells at 1.25 uM incubated for 24 hrs by annexinV-FITC and PI staining based flow cytometry analysis (reference value: 0.14 %). Type of test: functional.
Test [15] concerns ASPC1. In words: Induction of apoptosis in human ASPC1 cells assessed as increase in cleaved caspase 3 level incubated for 24 hrs by Western blot analysis. Type of test: functional, cell-based. The settings on record: dose 1.25-5 µM, DDE = dose-dependent effect.
Test [16] relates to PANC-1. Put plainly: Induction of apoptosis in human PANC-1 cells assessed as increase in cleaved caspase 3 level incubated for 24 hrs by Western blot analysis. It is filed as functional, cell-based. The settings on record: dose 1.25-5 µM, DDE = dose-dependent effect.
In test [17] the test system is ASPC1. In words: Induction of apoptosis in human ASPC1 cells assessed as increase in PARP level incubated for 24 hrs by Western blot analysis. It is filed as functional, cell-based. To be noted: dose 1.25-5 µM, DDE = dose-dependent effect.
The test system of test [18] is PANC-1. In words: Induction of apoptosis in human PANC-1 cells assessed as increase in PARP level incubated for 24 hrs by Western blot analysis. Type of test: functional, cell-based. To be noted: dose 1.25-5 µM, DDE = dose-dependent effect.
Test [19] relates to PANC-1. Put plainly: Downregulation of survivin level in human PANC-1 cells upto 5 uM incubated for 24 hrs by Western blot analysis. Type of test: functional, cell-based.
Test [20] concerns PANC-1. In words: Downregulation of Bcl-2 level in human PANC-1 cells upto 5 uM incubated for 24 hrs by Western blot analysis. It is filed as functional, cell-based.
The test system of test [21] is PANC-1. Put plainly: Induction of apoptosis in human PANC-1 cells assessed as suppression of XIAP expression at upto 5 uM incubated for 24 hrs by Western blot analysis. It is filed as functional, cell-based.
Test [22] has as its system ASPC1. In words: Inhibition of cell migration in human ASPC1 cells at 0.94 to 3.75 uM incubated for 24 hrs by wound healing assay. Type of test: functional, cell-based. To be noted: dose 0.94-3.75 µM.
Test [23] has as its system ASPC1. Put plainly: Upregulation of cleaved caspase 3 expression in human ASPC1 cells incubated for 24 hrs in presence of gemcitabine by Western blot analysis. Type of test: functional, cell-based.

As usually defined, the IC50 is the concentration at which inhibition is half-maximal. Turning to `COC(=O)CCCCCCC/C=C/C(=O)OC[C@@]1(C)CCC[C@@]2(C)[C@H]1[C@H](OC(=O)c1ccc([N+](=O)[O-])cc1)C=C1C(=O)OC[C@@]12O`, in the test on PANC-1 [1], the viability at 5 µM came to 69.6%. Besides, the viability at 2.5 µM in the test on PANC-1 [2] is 80.6%; with ASPC1 [5] it was 87.7%. For the same compound, the IC50 in the test with BXPC-3 was 4.88 µM. Besides, the inhibition result (in test [3]; in [4]; in the test with ASPC1 [22]) was “Active” in each case. Moreover, the Activity in the test on ASPC1 [6] is reported as 5.77%; with ASPC1 [7] it was 7.03%; with ASPC1 [8], 2.98%; with ASPC1 [9] it was 10.1%; with ASPC1 [10], 0.38%; in the test with PANC-1 [11], 5.58%. Also, the Activity in the test on PANC-1 [12] was 7.12%; in the test on PANC-1 [13], 13.6%; in the test on PANC-1 [14], 0.22%; with ASPC1 [15], “Dde”; with PANC-1 [16], “Dde”; in the test with ASPC1 [17], “Dde”. The Activity result in the test on PANC-1 [18] was “Dde”. The result in the test with PANC-1 [19], in the test on PANC-1 [20], with PANC-1 [21] and in the test with ASPC1 [23] was Active.

The values are drawn from ChEMBL document CHEMBL5120812, “Cytotoxic Nitrobenzoyl Sesquiterpenoids from an Antarctica Sponge-Derived Aspergillus insulicola” (J Nat Prod, 2022).
